Patent US7691563B2, “Method for alleviating pain using sphingosine-1-phosphate and related compounds, and assays for identifying such compounds” (Sanofi-Aventis Pharma GmbH, priority 2003, dated 2010)
Where “and” joins values, the source holds several entries; their conditions need not be identical. Equal values may be shown once.

Legend:
[1] = system: adenylyl cyclase (AC); test: AC activity of HeLa cell lysates after treatment of cells; assay type: cell-based, human; conditions: for effect on serum-induced inhibition of Gαs- and forskolin-stimulated AC activity: HeLa cells transfected with ODN (3 μM), 30 minutes 10% FBS; for effect of pre-treatment on S1P inhibition of Gαs-stimulated AC activity: HeLa cells, 0.5 μM S1P, PTX 1 μg/μl 24 hours, inhibitors 10 μM 20 minutes, ODN 3 μM, 60 minutes S1P
Experimental: Panel B: Adenylyl cyclase activity of HeLa cell lysates was measured in the absence and presence of serum as described in Materials and Methods section. The Gsα* (80 nM; grey bars)- and forskolin (100 μM; black bars)-stimulated specific activities of ACV were 124±10 pmol/mg/min and 464±89 pmol/min/mg, respectively. The basal activity was 11.75±2 pmol/mg/min. The mean ±SE of at least 2 experiments each done in triplicates is shown. Student T test: *p<0.001.
Panel E: Serum-starved HeLa cells were treated with sense, antisense, and 3M-as ODNs as described above. After 24 hours the cells were incubated for 30 minutes with 10% FBS. Cells were harvested and AC activity in presence of Gαs* (80 nM; grey bars) and forskolin (100 μM; black bars) was determined as described above. Data from at least 3 experiments measured in triplicates are presented as the mean±SEM. Student T test: *p<0.01, **p<0.05.
Panel B: Serum-starved HeLa cells were treated for varying times with 0.5 μM S1P. Cells were harvested and AC activity in presence of 80 nM Gαs* was determined as described in Material and Methods. Data from at least 4 experiments measured in triplicates are presented as the mean ±SE.
Panel C: Serum-starved HeLa cells were treated with sense, antisense, and 3M-as ODNs as described in the Materials and Methods section. After 24 hours the cells were incubated for the indicated times with 0.5 μM S1P. Cells were harvested and AC activity in presence of Gαs* (80 nM) was determined as described above. Data are presented as the mean ±SEM of three determinations.
Panel A: Serum-starved HeLa cells were treated with 0.5 μM S1P for 3 (grey bars) or 60 (black bars) minutes. Prior incubation with S1P the cells were incubated for 24 hours with […] pertussis toxin (PTX). AC activity in was determined presence of 80 nM Gαs*. Data from at least 2 experiments measured in triplicates are presented as the mean ±SE.
Panel B: Serum-starved HeLa cells were treated with 0.5 μM S1P. Prior incubation with S1P the cells were incubated for 20 minutes with 10 μM U73122, R031-8220, BAPTA-AM or U0126. AC activity in was determined presence of 80 nM Gαs*. Data from at least 2 experiments measured in triplicates are presented as the mean ±SE.
Spinal cords were lysed in 25 mM Hepes, pH 7.4, 1 mM EGTA and cell membranes were prepared as described by Kassis and Fishman. Aliquots were stored at −80° C. until use. AC activity assays were performed in a volume of 100 μl for 15 min at room temperature in the presence of 100 μM MgCl2 as previously described (Patel et al., 2002). Gsα* (80 nM) or forskolin (100 μM) were used to stimulate AC enzyme activity in membranes (10 μg protein).
The sequences of the oligodeoxynucleotides (ODNs) were chosen as published previously (Scholich et al., 2001). Sense: 5′-CTGTTCATGCCGGTT-3′, antisense: 5′-AACCGGCATGAACAG-3′, and antisense ODN harboring three mutations (3M-as; mutations are underlined): 5′-AATCCGTATGAACAC-3′. HeLa-cells were plated on 35 mm dishes (300,000 cells) and grown in DMEM medium (Gibco, Karlsruhe, Germany) containing 10% FBS and 1% penicillin/streptoMycin for 24 hours. The ODNs (3 μM each) were introduced into the cells by transfections using Tfx20 (Promega, Madison, Wis.) in 1 ml serum-free medium according to the instructions of the manufacturer. Two hours later, 1 ml DMEM (Gibco, Karlsruhe, Germany) containing 10% FBS was added. The cells were then incubated for 6 hours. Then the medium was exchanged against serum-free DMEM (Gibco, Karlsruhe, Germany), followed by an incubation for 16 hours in serum-free DMEM (Gibco, Karlsruhe, Germany) before being treated with 10% serum or […] S1P. The cells were then used for Western blots by adding boiling 1× Laemmli buffer or they were havested for AC activity assays as described above.

[2] = system: PAM; test: PAM translocation to the plasma membrane in HeLa cells (immunofluorescence); assay type: cell-based, human; conditions: HeLa cells, 0.5 μM S1P; PTX 1 μg/μl 24 hours; GF109203X 1 μM, others 10 μM, 20 minutes
Experimental: Panel B: HeLa cells were treated with 10% fetal bovine serum for different times and stained with anti-PAM antibodies to monitor the subcellular localization.
Panel B: HeLa cells were treated with 0.5 μM S1P for 30 minutes and stained with anti-PAM antibodies to monitor the subcellular localization.
Panel C: Time dependence of PAM translocation in HeLa cells. Serum-starved HeLa cells were treated with 0.5 μM S1P for different times and stained with anti-PAM antibodies to monitor the subcellular localization.
Panel D: HeLa cells were treated with 0.5 μM S1P for 20 minutes and stained with anti-PAM antibodies to monitor the subcellular localization. Prior S1P-treatment were the cells incubated for 24 hours with […] pertussis toxin (PTX), for 20 minutes with, 1 μM GF109203X, 10 μM U0126, BAPTA-AM, U73122 or Ro31-223.
To monitor distribution of PAM in HeLa cells, cells were grown on glass coverslips in DMEM with 10% FBS and 1% penicillin/streptoMycin (Gibco, Karlsruhe, Germany). To visualize translocation of PAM HeLa, cells were serum starved overnight and subsequently treated with 10% serum for 2 hours. Wherever indicated, cells were preincubated for 30 minutes in the presence of different concentrations of inhibitors. The cells were fixed in 4% paraformaldehyde (Sigma, Taufkirchen, Germany) in PBS for 10 minutes and then permeablized in 0.1% Triton X-100 for another 5 minutes. The coverslips were blocked for 1 hour in 3% BSA in PBS and then incubated for 1 hour with anti-PAM antibody (1:50 dilution). This was followed by incubation with FITC-labeled goat anti-rabbit antibody in PBS containing 3% BSA. The cells were then washed with PBS and mounted. For the analysis confocal (BioRad, Hercules, Calif.) and regular flourescence microscopes (Nikon, Duesseldorf, Germany) were used.

[3] = system: adenylyl cyclase (AC); test: AC activity assay, purified PAM added to spinal cord or DRG lysates; assay type: biochemical, rat; conditions: 30 nM PAM
Experimental: Panel B: Lysates of spinal cords or DRG (10 μg) were assayed for AC activity in the presence of 80 nM Gαs as described in Material and Methods. The mean ±SEM of at least 3 determinations done in triplicates is shown.
PAM purification was performed with some modifications as published previously (Scholich et al. 2001). Shortly, HeLa cells were grown in DMEM medium with 10% fetal bovine serum and 1% penicillin/streptoMycin. Confluent cells of forty 150 mm dishes were harvested with 1×PBS, 1 mM EDTA and pelleted for 5 minutes at 400×g. The cells were resuspended in TED buffer (50 mM Tris-HCl, pH 8.0, 1 mM EDTA, 1 mM DTT) containing 125 mM NaCl, 20 μg/ml of aprotinin, 20 μg/ml leupeptin, 1 mM benzamidine, 5 μg/ml soybean trypsin inhibitor and lysed by 2×5 seconds of sonication. The homogenate was centrifuged at 27000×g for 30 min at 4° C., and the supernatant was loaded on a Q-Sepharose XK16 column (Amersham, Pharmacia, Piscataway, N.J.) and eluted with a gradient of 150-350 mM NaCl in TED according to instructions of the manufacturer. The fractions were analyzed by Western blotting according to standard procedures; positive fractions were pooled and the NaCl concentration adjusted to 1 M. The protein was then loaded on a Phenyl-Sepharose XK16 column (Amersham, Pharmacia, Piscataway, N.J.) and washed with 300 mM NaCl in TED according to instructions of the manufacturer. The flow through and wash fractions contained PAM. They were pooled and the buffer exchanged for the aforementioned TED buffer containing 100 mM NaCl using Centricon 50 (Amicon, Beverly, Mass.) according to the manufacturer's instructions. The protein was then loaded on a MonoS 5/5 FPLC column (Amersham, Pharmacia, Piscataway, N.J.) and washed with the loading buffer (100 mM NaCl in TED) according to instructions of the manufacturer. The flow through was collected and applied to a Mono Q 5/5 FPLC column (Amersham, Pharmacia, Piscataway, N.J.). The protein was eluted with a gradient from 150-400 mM NaCl in TED. […]

Row | Compound | effect of pre-treatment on S1P-induced PAM translocation [2] | effect of pre-treatment on S1P inhibition of Gαs-stimulated AC activity [1] | further results
1 | 3M-as: antisense ODN harboring three mutations, HeLa cells, 5′-AATCCGTATGAACAC-3′ (DNA, backbone and methylation of C not given here) | – | – | effect on serum-induced inhibition of Gαs- and forskolin-stimulated AC activity [1]: no influence
2 | CC(=O)OCOC(=O)CN(CC(=O)OCOC(C)=O)c1ccccc1OCCOc1ccccc1N(CC(=O)OCOC(C)=O)CC(=O)OCOC(C)=O [BAPTA-AM, reference compound] | did not interfere | – | –
3 | CN(C)CCCn1cc(C2=C(c3c[nH]c4ccccc34)C(=O)NC2=O)c2ccccc21 [GF109203X, reference compound] | eliminated | – | –
4 | Cn1cc(C2=C(c3cn(CCCSC(=N)N)c4ccccc34)C(=O)NC2=O)c2ccccc21 [RO 31-8220] | – | eliminated | –
5 | COc1ccc2c(c1)CC[C@@H]1[C@@H]2CC[C@]2(C)[C@@H](NCCCCCCN3C(=O)C=CC3=O)CC[C@@H]12 [U73122, reference compound] | abolished | abolished | –
6 | C=C[C@@]1(C)CC(=O)[C@]2(O)[C@@]3(C)[C@@H](O)CCC(C)(C)[C@@H]3[C@H](O)[C@H](OC(C)=O)[C@@]2(C)O1 [forskolin] | – | – | forskolin-stimulated specific activity of AC ([1]; HeLa cell lysates, 100 μM forskolin): 464 ± 89 pmol/min/mg
7 | PAM: Protein Associated with Myc, giant protein of 510 kDa, full length purified from HeLa cells | – | – | decrease of Gαs-stimulated AC activity ([3]; DRG lysates): 32%; inhibition of Gαs-stimulated AC activity ([3]; spinal cord lysates of animals treated for 1 hour with formalin): 25%; decrease of Gαs-stimulated AC activity ([3]; spinal cord lysates of control animals): 50% and 49%
8 | Pertussis toxin [reference compound] | eliminated | eliminated | –
9 | sense ODN: sense ODN used in HeLa cells, 5′-CTGTTCATGCCGGTT-3′ (DNA, backbone and methylation of C not given here) | – | – | effect on serum-induced inhibition of Gαs- and forskolin-stimulated AC activity [1]: no influence
